Experiments:
Raji [1] = assay: Inhibition of 12-O-tetradecanoylphorbol-13-acetate-induced EBV-early antigen activation in human Raji cells assessed as early antigen activation at 4 mM ratio relative to TPA; assay type: cell-based; parameters: scale not given: the % may be the effect or the level left; conditions: human gammaherpesvirus 4
Raji [2] = assay: Inhibition of EBV-early antigen activation in human Raji cells assessed as early antigen activation at 4 mM; assay type: cell-based; parameters: scale not given: the % may be the effect or the level left; conditions: human gammaherpesvirus 4

CCCC(=O)O
Activity (Raji [1]): 34.5%
Activity (Raji [2]): 0.1%
